Values of other authors in publication PMC8592027, “Structure-Guided Design of D-Galactal Derivatives with High Affinity and Selectivity for the Galectin-8 N-Terminal Domain” (ACS Medicinal Chemistry Letters, 2021).

Legend:
Conditions in all cases: cited from earlier work
galectin-2 = target: T1, galectin-2 (Homo sapiens, UniProt P05162); parameters: method as in PMID 30117507, PMID 15889175, doi:10.1139/cjc-2015-0598
T1 sequence (P05162 1-132): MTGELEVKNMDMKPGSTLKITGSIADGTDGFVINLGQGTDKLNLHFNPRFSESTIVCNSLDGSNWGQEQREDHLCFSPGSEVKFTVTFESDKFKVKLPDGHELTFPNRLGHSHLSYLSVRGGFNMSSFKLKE

[1] = target: T2, galectin-9N (N-terminal domain) (Homo sapiens, UniProt O00182)
T2 construct: galectins (N = N-terminal domain, C = C-terminal domain); made in house

[2] = target: T3, galectin-9C (C-terminal domain) (Homo sapiens, UniProt O00182)
T3 construct: galectins (N = N-terminal domain, C = C-terminal domain); made in house
T3 sequence (O00182 227-355 limits assumed): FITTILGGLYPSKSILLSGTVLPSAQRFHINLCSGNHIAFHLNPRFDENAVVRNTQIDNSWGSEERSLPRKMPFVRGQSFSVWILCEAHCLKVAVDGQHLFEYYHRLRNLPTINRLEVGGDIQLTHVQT

T2 sequence (O00182 17-148 limits assumed): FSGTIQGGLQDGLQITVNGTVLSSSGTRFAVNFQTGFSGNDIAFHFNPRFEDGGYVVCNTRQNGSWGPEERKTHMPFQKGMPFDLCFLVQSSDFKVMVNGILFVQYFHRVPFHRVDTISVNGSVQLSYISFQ

SMILES: CO[C@@H]1O[C@H](CO)[C@H](O)[C@H](O)[C@H]1O [methyl β-D-galactoside]
- Kd (galectin-2): 13 mM
- Kd [1]: 3.3 mM
- Kd [2]: 8.6 ± 7.31 mM
